Tests used:
in vitro = conditions: human, microsomes, pH 7.6
[1] = biological target: human Somatostatin 4 Receptor (SSTR4) (Homo sapiens (Human), UniProt P31391); assay: cAMP assay with human somatostatin 4 receptor (hSSTR4 expressing H4 cells); assay type: cell-based; conditions: read-out: SSTR4 agonism EC50
human SSTR1 = human SSTR1 (Homo sapiens (Human), UniProt P30872); assay: Radioligand binding assay, CHO cell membranes expressing recombinant human SSTR1
Text: (§1) Radioligand Binding Assays
(§2) Method description for binding assays with human Somatostatin receptors by use of CHO cell membranes expressing recombinant human SSTR1 or human SSTR2 or human SSTR3 or human SSTR4 or human SSTR5
(§3) Receptor binding assays refer to a technique in which labeled receptor ligands are used to detect binding to a receptor. In competition experiments test compounds, which are not labeled, compete with the binding side of a labeled ligand. The displacement of the labeled ligand by the test compound leads to a decreased signal.
(§4) For the binding experiments 200 μL of membrane homogenate from one of the following protein amounts is used: hSSTR1 (40 μg/well); hSSTR2 (25 μg/well); hSSTR3 (1.5 μg/well); hSSTR4 (0.5 μg/well); hSSTR5 (25 μg/well). The homogenate is incubated with 0.05 nM of radioligand ([3-125I-Tyr]-Somatostatin-(1-14)) in addition to increasing concentrations of a test compound or vehicle (100% binding) in a total volume of 250 μL using a Hepes buffer (10 mM, EDTA 1 mM, MgCl2 5 mM, pH7.6, BSA 0.5%, Bacitracin 0.003%, DMSO 1%) for 180 min at room temperature. The incubation is terminated by filtration with ice cold NaCl 0.9% through polyethyleneimine treated (0.3%) GF/B glass fiber filters using a cell harvester. The protein-bound radioactivity is measured in a suitable reader. The non-specific binding is defined as radioactivity bound in the presence of 1 μM Somatostatin-14 during the incubation period.
(§5) The analysis of the concentration-binding curves is performed by computer-assisted nonlinear least square curve fitting method using the model of one receptor binding site.
(§6) Selectivity data was obtained with the aid of the above described radioligand binding assays.

human SSTR5 = human SSTR5 (Homo sapiens (Human), UniProt P35346); assay: Radioligand binding assay, CHO cell membranes expressing recombinant human SSTR5
Text: as §1, §2, §3, §4, §5, §6

human SSTR4 = human SSTR4 (Homo sapiens (Human), UniProt P31391); assay: Radioligand binding assay, CHO cell membranes expressing recombinant human SSTR4
Text: as §1, §2, §3, §4, §5, §6

human SSTR3 = human SSTR3 (Homo sapiens (Human), UniProt P32745); assay: Radioligand binding assay, CHO cell membranes expressing recombinant human SSTR3
Text: as §1, §2, §3, §4, §5, §6

human SSTR2 = human SSTR2 (Homo sapiens (Human), UniProt P30874); assay: Radioligand binding assay, CHO cell membranes expressing recombinant human SSTR2
Text: as §1, §2, §3, §4, §5, §6

human SSTR5, sequence (P35346 whole entry): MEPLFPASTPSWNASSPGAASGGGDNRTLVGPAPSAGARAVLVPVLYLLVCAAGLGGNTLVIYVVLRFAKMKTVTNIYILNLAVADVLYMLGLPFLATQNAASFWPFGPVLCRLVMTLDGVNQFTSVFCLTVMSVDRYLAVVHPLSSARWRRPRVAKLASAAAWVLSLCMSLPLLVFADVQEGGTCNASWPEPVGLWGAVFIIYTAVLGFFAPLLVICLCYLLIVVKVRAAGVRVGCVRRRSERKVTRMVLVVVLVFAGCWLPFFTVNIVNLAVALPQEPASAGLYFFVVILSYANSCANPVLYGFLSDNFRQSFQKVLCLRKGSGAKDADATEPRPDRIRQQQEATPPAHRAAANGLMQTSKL
human SSTR4, sequence (P31391 whole entry): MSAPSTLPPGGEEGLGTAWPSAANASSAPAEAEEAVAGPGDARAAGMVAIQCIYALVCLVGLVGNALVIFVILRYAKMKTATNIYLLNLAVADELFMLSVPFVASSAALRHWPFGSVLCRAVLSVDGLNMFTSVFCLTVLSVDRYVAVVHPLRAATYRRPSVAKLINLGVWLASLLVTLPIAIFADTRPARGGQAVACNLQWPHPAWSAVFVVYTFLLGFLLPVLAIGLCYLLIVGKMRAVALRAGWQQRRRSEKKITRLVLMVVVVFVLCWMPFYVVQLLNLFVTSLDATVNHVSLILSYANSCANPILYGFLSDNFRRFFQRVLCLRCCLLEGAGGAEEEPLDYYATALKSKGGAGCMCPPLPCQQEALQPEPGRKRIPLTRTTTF
human Somatostatin 4 Receptor (SSTR4), sequence (P31391 whole entry): as above
human SSTR3, sequence (P32745 whole entry): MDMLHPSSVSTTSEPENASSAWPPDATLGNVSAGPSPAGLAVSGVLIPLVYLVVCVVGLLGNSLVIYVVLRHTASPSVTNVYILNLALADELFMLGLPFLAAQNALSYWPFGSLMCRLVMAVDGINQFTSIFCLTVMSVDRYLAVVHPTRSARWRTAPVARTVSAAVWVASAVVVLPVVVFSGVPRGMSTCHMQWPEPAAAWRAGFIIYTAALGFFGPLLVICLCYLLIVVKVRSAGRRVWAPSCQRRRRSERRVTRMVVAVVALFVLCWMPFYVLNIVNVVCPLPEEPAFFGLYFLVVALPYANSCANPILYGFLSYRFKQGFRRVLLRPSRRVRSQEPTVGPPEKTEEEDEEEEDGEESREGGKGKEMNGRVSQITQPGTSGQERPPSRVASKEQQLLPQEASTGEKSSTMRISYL
human SSTR2, sequence (P30874 whole entry): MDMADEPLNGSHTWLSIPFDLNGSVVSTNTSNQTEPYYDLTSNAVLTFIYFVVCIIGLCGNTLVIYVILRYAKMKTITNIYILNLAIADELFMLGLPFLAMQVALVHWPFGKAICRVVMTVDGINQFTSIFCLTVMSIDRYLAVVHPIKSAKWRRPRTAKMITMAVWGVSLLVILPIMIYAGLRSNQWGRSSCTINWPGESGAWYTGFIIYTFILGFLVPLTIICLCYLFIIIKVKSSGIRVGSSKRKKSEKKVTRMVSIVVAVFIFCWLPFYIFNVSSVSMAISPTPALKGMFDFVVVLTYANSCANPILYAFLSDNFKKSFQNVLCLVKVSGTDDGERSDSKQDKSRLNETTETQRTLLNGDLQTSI
human SSTR1, sequence (P30872 whole entry): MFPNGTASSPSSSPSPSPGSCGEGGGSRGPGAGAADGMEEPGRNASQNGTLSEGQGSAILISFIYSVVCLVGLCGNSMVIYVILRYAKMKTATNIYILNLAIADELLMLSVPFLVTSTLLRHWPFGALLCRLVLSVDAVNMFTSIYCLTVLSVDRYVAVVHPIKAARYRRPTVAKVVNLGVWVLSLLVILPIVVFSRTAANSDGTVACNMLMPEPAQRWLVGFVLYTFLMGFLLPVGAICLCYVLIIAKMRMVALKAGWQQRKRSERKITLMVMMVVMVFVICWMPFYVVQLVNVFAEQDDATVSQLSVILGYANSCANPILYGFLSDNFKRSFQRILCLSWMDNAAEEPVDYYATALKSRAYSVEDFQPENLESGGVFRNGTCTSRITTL

half-life at 1 μM (in vitro) | EC50 [1] | SMILES | other results
> 2.17 h | 0.0039 µM | Cn1nc(C(C)(C)NC(=O)C2CNCCOC2)c2ccccc21 (racemic) [Example 20] | 
> 2.17 h | 0.0365 µM | Cn1nc(C(C)(C)NC(=O)C2CNCCCO2)c2ccccc21 (racemic) [Example 23] | 
> 2.17 h | 0.0613 µM | Cn1nc(C(C)(C)NC(=O)C2CCNCCO2)c2ccccc21 (racemic) [Example 26] | 
> 2.17 h | 0.0117 µM | Cc1nnc(C(C)(C)NC(=O)C2CNCCOC2)c2ccccc12 (racemic) [Example 37] | 
> 2.17 h | 0.007 µM | Cc1cc2ccccc2c(C(C)(C)NC(=O)C2CNCCOC2)n1 (racemic) [Example 44] | 
> 2.17 h | 0.0093 µM | Cc1cccn2c(C(C)(C)NC(=O)C3CNCCOC3)ncc12 (racemic) [Example 116] | 
> 2.17 h | 0.005 µM | Cc1cccn2c(C(C)(C)NC(=O)C3CNCCOC3)nc(C)c12 (racemic) [Example 128] | 
> 2.17 h | 0.0032 µM | Cn1nc(C(C)(C)NC(=O)C2CNCCOC2)c2ccccc21 (single isomer, unassigned) [Example 21] | Ki (human SSTR1): 9.45 µM; Ki (human SSTR5): 9.75 µM; Ki (human SSTR4): 0.0892 µM; Ki (human SSTR3): 8.62 µM; Ki (human SSTR2): 9.6 µM
> 2.17 h | 0.0362 µM | Cn1nc(C(C)(C)NC(=O)C2CNCCCO2)c2ccccc21 (single isomer, unassigned) [Example 24] | Ki (human SSTR1): 9.45 µM; Ki (human SSTR5): 9.75 µM; Ki (human SSTR4): 0.523 µM; Ki (human SSTR3): 8.62 µM; Ki (human SSTR2): 9.6 µM
> 2.17 h | 0.0558 µM | Cn1nc(C(C)(C)NC(=O)C2CCNCCO2)c2ccccc21 (single isomer, unassigned) [Example 27] | 
> 2.17 h | 0.0057 µM | Cc1cccc2c(C(C)(C)NC(=O)C3CNCCOC3)cnn12 (single isomer, unassigned) [Example 34] | 
> 2.17 h | 0.0007 µM | Cc1ncc(C(C)(C)NC(=O)C2CNCCOC2)c2ccccc12 (single isomer, unassigned) [Example 41] | 
> 2.17 h | 0.0034 µM | Cc1cc2ccccc2c(C(C)(C)NC(=O)C2CNCCOC2)n1 (single isomer, unassigned) [Example 46] | 
> 2.17 h | 0.0189 µM | Cc1cc2ccccc2c(C(C)(C)NC(=O)C2CNCCCO2)n1 (single isomer, unassigned) [Example 48] | 
> 2.17 h | 0.0029 µM | Cc1cccc2c(C(C)(C)NC(=O)C3CNCCOC3)noc12 (single isomer, unassigned) [Example 55] | 
> 2.17 h | 0.0013 µM | Cc1cccc2c(C(C)(C)NC(=O)C3CNCCOC3)n[nH]c12 (single isomer, unassigned) [Example 60] | 
> 2.17 h | 0.0051 µM | Cn1nc(C(C)(C)NC(=O)C2CNCCOC2)c2cccc(F)c21 (single isomer, unassigned) [Example 77] | 
> 2.17 h | 0.003 µM | Cn1nc(C(C)(C)NC(=O)C2CNCCOC2)c2cccc(Cl)c21 (single isomer, unassigned) [Example 82] | 
> 2.17 h | 0.002 µM | Cc1cccc2c(C(C)(C)NC(=O)C3CNCCOC3)nn(C)c12 (single isomer, unassigned) [Example 85] | 

half-life at 1 μM (in vitro) | EC50 [1] | SMILES | other results
> 2.17 h | 0.0031 µM | CC(C)(NC(=O)C1CNCCOC1)c1n[nH]c2c(F)cccc12 (single isomer, unassigned) [Example 89] | 
> 2.17 h | 0.0014 µM | CC(C)(NC(=O)C1CNCCOC1)c1n[nH]c2c(Cl)cccc12 (single isomer, unassigned) [Example 93] | 
> 2.17 h | 0.0026 µM | Cc1cccn2c(C(C)(C)NC(=O)C3CNCCOC3)ncc12 (single isomer, unassigned) [Example 117] | 
> 2.17 h | 0.0059 µM | CC(C)(NC(=O)C1CNCCOC1)c1ncc2c(Cl)cccn12 (single isomer, unassigned) [Example 120] | 
> 2.17 h | 0.0037 µM | Cc1cccn2c(C(C)(C)NC(=O)C3CNCCOC3)ccc12 (single isomer, unassigned) [Example 136] | 
> 2.17 h | 0.0291 µM | Cc1cccn2c(C(C)(C)NC(=O)C3CNCCCO3)ncc12 (single isomer, unassigned) [Example 145] | 
 | 0.258 µM | CC(C)(NC(=O)[C@H]1CNCCO1)c1cccc2ncccc12 [Example 8] | 
 | 0.19 µM | CC(C)(COc1cnccc1C(F)(F)F)NC(=O)[C@@H]1CNCCO1 [Example 9] | 
 | 0.0512 µM | C[C@H](NC(=O)[C@@H]1CNCCO1)c1cccc2ccccc12 [Example 10] | 
 | 0.0263 µM | CC(C)(NC(=O)[C@@H]1CNCCO1)c1ccnc2ccccc12 [Example 11] | 
 | 0.355 µM | CC(C)(NC(=O)C1CNCCOC1)c1nc2ccc(Cl)cc2[nH]1 (centres unmarked) [Example 13] | 
 | 0.796 µM | CC(C)(NC(=O)[C@@H]1CNCCO1)c1nc2ccc(Cl)cc2[nH]1 [Example 14] | 
 | 0.244 µM | Cc1ccccc1OCC(C)(C)NC(=O)[C@@H]1CNCCO1 [Example 15] | 
> 2.17 h | 0.0133 µM | Cn1nc(C(C)(C)NC(=O)[C@@H]2CNCCO2)c2ccccc21 [Example 19] | Ki (human SSTR1): 9.01 µM; Ki (human SSTR5): 9.86 µM; Ki (human SSTR4): 0.194 µM; Ki (human SSTR3): 8.71 µM; Ki (human SSTR2): 9.63 µM
 | 0.0216 µM | Cn1nc(C(C)(C)NC(=O)[C@@H]2CNCCO2)c2c(F)cccc21 [Example 29] | 
> 2.17 h | 0.0131 µM | Cn1nc(C(C)(C)NC(=O)[C@@H]2CNCCO2)c2ccc(F)cc21 [Example 30] | 
 | 0.0527 µM | Cn1nc(C(C)(C)NC(=O)[C@@H]2CNCCO2)c2cccc(C(F)(F)F)c21 [Example 31] | 
 | 0.0109 µM | Cc1cccc2c(C(C)(C)NC(=O)[C@@H]3CNCCO3)cnn12 [Example 32] | 
 | 0.0254 µM | Cc1nnc(C(C)(C)NC(=O)[C@@H]2CNCCO2)c2ccccc12 [Example 36] | 

half-life at 1 μM (in vitro) | EC50 [1] | SMILES | other results
> 2.17 h | 0.0013 µM | Cc1ncc(C(C)(C)NC(=O)[C@@H]2CNCCO2)c2ccccc12 [Example 38] | 
 | 0.18 µM | Cc1ncc(C(C)(C)NC(=O)[C@H]2CNCCO2)c2ccccc12 [Example 39] | 
1.83 h |  | Cc1cc2ccccc2c(C(C)(C)NC(=O)[C@@H]2CNCCO2)n1 [Example 43] | 
> 2.17 h | 0.0024 µM | Cc1cccc2c(C(C)(C)NC(=O)[C@@H]3CNCCO3)n[nH]c12 [Example 57] | 
 | 0.147 µM | CC(C)(NC(=O)[C@@H]1CNCCO1)c1noc2c(F)cccc12 [Example 61] | 
 | 0.0351 µM | CC(C)(NC(=O)[C@@H]1CNCCO1)c1noc2c(Cl)cccc12 [Example 71] | 
 | 0.0134 µM | CC(C)(NC(=O)[C@@H]1CNCCO1)c1n[nH]c2c(F)cccc12 [Example 87] | 
> 2.17 h | 0.0034 µM | CC(C)(NC(=O)[C@@H]1CNCCO1)c1n[nH]c2c(Cl)cccc12 [Example 91] | 
> 2.17 h | 0.0045 µM | Cc1cccn2c(C(C)(C)NC(=O)[C@@H]3CNCCO3)ncc12 [Example 95] | Ki (human SSTR1): 9.48 µM; Ki (human SSTR5): 9.77 µM; Ki (human SSTR4): 0.218 µM; Ki (human SSTR3): 8.69 µM; Ki (human SSTR2): 9.63 µM
> 2.17 h | 0.013 µM | CC(C)(NC(=O)[C@@H]1CNCCO1)c1ncc2c(Cl)cccn12 [Example 96] | 
 | 0.0408 µM | Cc1cccn2c(C3(NC(=O)[C@@H]4CNCCO4)CC3)ncc12 [Example 97] | 
 | 0.103 µM | Cc1cc(F)cn2c(C(C)(C)NC(=O)[C@@H]3CNCCO3)ncc12 [Example 100] | 
 | 0.031 µM | Cc1cccn2c(C3(NC(=O)[C@@H]4CNCCO4)CCC3)ncc12 [Example 102] | 
 | 0.0607 µM | CC(C)(NC(=O)[C@@H]1CNCCO1)c1nc(C2CC2)c2c(F)cccn12 [Example 103] | 
 | 0.0735 µM | Cc1cccn2c(C(C)(C)NC(=O)[C@@H]3CNCCO3)nc(C3CC3)c12 [Example 104] | 
 | 0.596 µM | Cc1cccn2c(C(C)(C)NC(=O)[C@@H]3CNCCO3)nnc12 [Example 105] | 
 | 0.23 µM | Cc1nc2ccccn2c1C(C)(C)NC(=O)[C@@H]1CNCCO1 [Example 106] | 
 | 0.0581 µM | Cc1cccn2c(C(C)(C)NC(=O)[C@@H]3CNCCO3)cnc12 [Example 108] | 
1.4 h | 0.0037 µM | Cc1cccn2c(C(C)(C)NC(=O)[C@@H]3CNCCO3)ccc12 [Example 109] | 

Reference: US10071974B2, “Morpholine and 1,4-oxazepane amides as somatostatin receptor subtype 4 (SSTR4) agonists” (Boehringer Ingelheim International GmbH, priority 2014, dated 2018)
